Measurements: PubChem BioAssay (NCI)
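Grown in 96-well plates, cells were treated for 48 hours with each compound at five concentrations. Insufficient inhibition: endpoint recorded as highest concentration tested. TGI: concentration producing complete growth inhibition.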

Tests used:
Experiment in all cases: DTP human tumour cell line panel, 48 h
UACC-257 melanoma = test system: UACC-257 melanoma
SN12C renal = test system: SN12C renal
HS 578T breast = test system: HS 578T breast
SF-295 CNS = test system: SF-295 CNS
PC-3 prostate = test system: PC-3 prostate
SF-268 CNS = test system: SF-268 CNS
RXF 393 renal = test system: RXF 393 renal
HCT-15 colon = test system: HCT-15 colon
RPMI-8226 leukemia = test system: RPMI-8226 leukemia
LOX IMVI melanoma = test system: LOX IMVI melanoma
UO-31 renal = test system: UO-31 renal
IGROV1 ovarian = test system: IGROV1 ovarian
T-47D breast = test system: T-47D breast
HCC-2998 colon = test system: HCC-2998 colon
SNB-19 CNS = test system: SNB-19 CNS
NCI/ADR-RES ovarian = test system: NCI/ADR-RES ovarian
MDA-MB-435 = test system: MDA-MB-435
OVCAR-5 ovarian = test system: OVCAR-5 ovarian
OVCAR-4 ovarian = test system: OVCAR-4 ovarian
SNB-75 CNS = test system: SNB-75 CNS
MOLT-4 leukemia = test system: MOLT-4 leukemia
786-0 renal = test system: 786-0 renal
M14 melanoma = test system: M14 melanoma
MCF7 breast = test system: MCF7 breast
DU-145 prostate = test system: DU-145 prostate
NCI-H460 lung = test system: NCI-H460 lung
SW-620 colon = test system: SW-620 colon
SK-OV-3 ovarian = test system: SK-OV-3 ovarian
HL-60(TB) leukemia = test system: HL-60(TB) leukemia
MALME-3M melanoma = test system: MALME-3M melanoma
ACHN renal = test system: ACHN renal
SK-MEL-28 melanoma = test system: SK-MEL-28 melanoma
COLO 205 colon = test system: COLO 205 colon
HT29 colon = test system: HT29 colon
K-562 leukemia = test system: K-562 leukemia
MDA-N = test system: MDA-N
SF-539 CNS = test system: SF-539 CNS
A549 NSCLC = test system: A549 NSCLC
HCT-116 colon = test system: HCT-116 colon
TK-10 renal = test system: TK-10 renal
UACC-62 melanoma = test system: UACC-62 melanoma
CAKI-1 renal = test system: CAKI-1 renal
CCRF-CEM leukemia = test system: CCRF-CEM leukemia
SR leukemia = test system: SR leukemia
HOP-92 NSCLC = test system: HOP-92 NSCLC
KM12 colon = test system: KM12 colon
SK-MEL-2 melanoma = test system: SK-MEL-2 melanoma
U251 CNS = test system: U251 CNS
BT-549 breast = test system: BT-549 breast
HOP-62 NSCLC = test system: HOP-62 NSCLC
NCI-H23 lung = test system: NCI-H23 lung
SK-MEL-5 melanoma = test system: SK-MEL-5 melanoma
OVCAR-3 ovarian = test system: OVCAR-3 ovarian
NCI-H522 lung = test system: NCI-H522 lung
EKVX NSCLC = test system: EKVX NSCLC
NCI-H226 lung = test system: NCI-H226 lung
A498 renal = test system: A498 renal
MDA-MB-231 breast = test system: MDA-MB-231 breast
OVCAR-8 ovarian = test system: OVCAR-8 ovarian

SMILES: O=C(/C=C(\N=P(c1ccccc1)(c1ccccc1)c1ccccc1)C(F)(F)C(F)(F)C(F)(F)C(F)(F)C(F)(F)C(F)(F)C(F)(F)F)c1ccccc1
- TGI (UACC-257 melanoma): > 100 µM
- TGI (SN12C renal): > 100 µM
- TGI (HS 578T breast): > 100 µM
- TGI (SF-295 CNS): > 100 µM
- TGI (PC-3 prostate): > 100 µM
- TGI (SF-268 CNS): > 100 µM
- TGI (RXF 393 renal): > 100 µM
- TGI (HCT-15 colon): > 100 µM
- TGI (RPMI-8226 leukemia): > 100 µM
- TGI (LOX IMVI melanoma): > 100 µM
- TGI (UO-31 renal): > 100 µM
- TGI (IGROV1 ovarian): > 100 µM
- TGI (T-47D breast): > 100 µM
- TGI (HCC-2998 colon): > 100 µM
- TGI (SNB-19 CNS): > 100 µM
- TGI (NCI/ADR-RES ovarian): > 100 µM
- TGI (MDA-MB-435): > 100 µM
- TGI (OVCAR-5 ovarian): > 100 µM
- TGI (OVCAR-4 ovarian): > 100 µM
- TGI (SNB-75 CNS): > 100 µM
- TGI (MOLT-4 leukemia): > 100 µM
- TGI (786-0 renal): > 100 µM
- TGI (M14 melanoma): > 100 µM
- TGI (MCF7 breast): > 100 µM
- TGI (DU-145 prostate): > 100 µM
- TGI (NCI-H460 lung): > 100 µM
- TGI (SW-620 colon): > 100 µM
- TGI (SK-OV-3 ovarian): > 100 µM
- TGI (HL-60(TB) leukemia): > 100 µM
- TGI (MALME-3M melanoma): > 100 µM
- TGI (ACHN renal): > 100 µM
- TGI (SK-MEL-28 melanoma): > 100 µM
- TGI (COLO 205 colon): > 100 µM
- TGI (HT29 colon): > 100 µM
- TGI (K-562 leukemia): > 100 µM
- TGI (MDA-N): > 100 µM
- TGI (SF-539 CNS): > 100 µM
- TGI (A549 NSCLC): > 100 µM
- TGI (HCT-116 colon): > 100 µM
- TGI (TK-10 renal): > 100 µM
- TGI (UACC-62 melanoma): > 100 µM
- TGI (CAKI-1 renal): > 100 µM
- TGI (CCRF-CEM leukemia): > 100 µM
- TGI (SR leukemia): > 100 µM
- TGI (HOP-92 NSCLC): > 100 µM
- TGI (KM12 colon): > 100 µM
- TGI (SK-MEL-2 melanoma): > 100 µM
- TGI (U251 CNS): > 100 µM
- TGI (BT-549 breast): > 100 µM
- TGI (HOP-62 NSCLC): > 100 µM
- TGI (NCI-H23 lung): > 100 µM
- TGI (SK-MEL-5 melanoma): > 100 µM
- TGI (OVCAR-3 ovarian): > 100 µM

SMILES: O=c1c2c3c(sc2nc(CN2CCNCC2)n1-c1ccccc1)CCCC3
- TGI (UACC-257 melanoma): > 100 µM
- TGI (SN12C renal): > 100 µM
- TGI (HS 578T breast): > 100 µM
- TGI (NCI-H522 lung): > 100 µM
- TGI (SF-295 CNS): > 100 µM
- TGI (PC-3 prostate): > 100 µM
- TGI (EKVX NSCLC): > 100 µM
- TGI (SF-268 CNS): > 100 µM
- TGI (RXF 393 renal): > 100 µM
- TGI (HCT-15 colon): > 100 µM
- TGI (NCI-H226 lung): > 100 µM
- TGI (RPMI-8226 leukemia): > 100 µM
- TGI (LOX IMVI melanoma): > 100 µM
- TGI (A498 renal): > 100 µM
- TGI (UO-31 renal): > 100 µM
- TGI (IGROV1 ovarian): > 100 µM
- TGI (T-47D breast): > 100 µM
- TGI (HCC-2998 colon): > 100 µM
- TGI (SNB-19 CNS): > 100 µM
- TGI (NCI/ADR-RES ovarian): > 100 µM
- TGI (OVCAR-5 ovarian): > 100 µM
- TGI (OVCAR-4 ovarian): 82.9 µM
- TGI (SNB-75 CNS): > 100 µM
- TGI (MOLT-4 leukemia): > 100 µM
- TGI (786-0 renal): > 100 µM
- TGI (M14 melanoma): > 100 µM
- TGI (MCF7 breast): > 100 µM
- TGI (DU-145 prostate): > 100 µM
- TGI (NCI-H460 lung): > 100 µM
- TGI (SW-620 colon): > 100 µM
- TGI (SK-OV-3 ovarian): > 100 µM
- TGI (HL-60(TB) leukemia): > 100 µM
- TGI (MALME-3M melanoma): > 100 µM
- TGI (ACHN renal): > 100 µM
- TGI (SK-MEL-28 melanoma): > 100 µM
- TGI (COLO 205 colon): > 100 µM
- TGI (HT29 colon): > 100 µM
- TGI (K-562 leukemia): > 100 µM
- TGI (MDA-N): > 100 µM
- TGI (A549 NSCLC): > 100 µM
- TGI (HCT-116 colon): > 100 µM
- TGI (TK-10 renal): > 100 µM
- TGI (UACC-62 melanoma): > 100 µM
- TGI (MDA-MB-231 breast): > 100 µM
- TGI (CAKI-1 renal): > 100 µM
- TGI (CCRF-CEM leukemia): > 100 µM
- TGI (SR leukemia): > 100 µM
- TGI (OVCAR-8 ovarian): > 100 µM
- TGI (HOP-92 NSCLC): > 100 µM
- TGI (KM12 colon): > 100 µM
- TGI (SK-MEL-2 melanoma): > 100 µM
- TGI (U251 CNS): > 100 µM
- TGI (BT-549 breast): > 100 µM
- TGI (HOP-62 NSCLC): > 100 µM
- TGI (NCI-H23 lung): > 100 µM
- TGI (SK-MEL-5 melanoma): > 100 µM
- TGI (OVCAR-3 ovarian): > 100 µM

SMILES: C=CS(=O)(=O)c1c2cc(OC)ccc2nc2ccc(OC)cc12
- TGI (UACC-257 melanoma): 24 µM
- TGI (SN12C renal): 8.21 µM
- TGI (HS 578T breast): 11.9 µM
- TGI (NCI-H522 lung): 3.74 µM
- TGI (SF-295 CNS): 32.3 µM
- TGI (PC-3 prostate): 23.3 µM
- TGI (EKVX NSCLC): 21.1 µM
- TGI (SF-268 CNS): 33.4 µM
- TGI (RXF 393 renal): 18.4 µM
- TGI (HCT-15 colon): > 33.9 µM
- TGI (NCI-H226 lung): 35.1 µM
- TGI (RPMI-8226 leukemia): 7.28 µM
- TGI (LOX IMVI melanoma): 7.16 µM
- TGI (A498 renal): 27.7 µM
- TGI (UO-31 renal): > 27.4 µM
- TGI (IGROV1 ovarian): 12.5 µM
- TGI (T-47D breast): 35.5 µM
- TGI (HCC-2998 colon): 24.8 µM
- TGI (SNB-19 CNS): 45.1 µM
- TGI (NCI/ADR-RES ovarian): 76.2 µM
- TGI (MDA-MB-435): 22.7 µM
- TGI (OVCAR-5 ovarian): > 36.9 µM
- TGI (OVCAR-4 ovarian): 30 µM
- TGI (SNB-75 CNS): 26.3 µM
- TGI (MOLT-4 leukemia): > 100 µM
- TGI (786-0 renal): 7.82 µM
- TGI (M14 melanoma): > 49.7 µM
- TGI (MCF7 breast): > 25.7 µM
- TGI (DU-145 prostate): 19.8 µM
- TGI (NCI-H460 lung): > 44.3 µM
- TGI (SW-620 colon): > 20.7 µM
- TGI (SK-OV-3 ovarian): 33.1 µM
- TGI (HL-60(TB) leukemia): > 100 µM
- TGI (MALME-3M melanoma): 4.89 µM
- TGI (ACHN renal): 24.5 µM
- TGI (SK-MEL-28 melanoma): 45.6 µM
- TGI (COLO 205 colon): > 42.3 µM
- TGI (HT29 colon): 10.7 µM
- TGI (K-562 leukemia): > 23.4 µM
- TGI (MDA-N): 11.3 µM
- TGI (SF-539 CNS): > 21.2 µM
- TGI (A549 NSCLC): > 47.1 µM
- TGI (HCT-116 colon): 5.02 µM
- TGI (TK-10 renal): 23.5 µM
- TGI (UACC-62 melanoma): 31.3 µM
- TGI (MDA-MB-231 breast): 50.7 µM
- TGI (CAKI-1 renal): 14.9 µM
- TGI (CCRF-CEM leukemia): > 23.4 µM
- TGI (OVCAR-8 ovarian): 15.4 µM
- TGI (HOP-92 NSCLC): > 51.1 µM
- TGI (KM12 colon): 28.8 µM
- TGI (SK-MEL-2 melanoma): 51.3 µM
- TGI (U251 CNS): > 52.6 µM
- TGI (BT-549 breast): 22.4 µM
- TGI (HOP-62 NSCLC): 32.8 µM
- TGI (NCI-H23 lung): 28.2 µM
- TGI (SK-MEL-5 melanoma): 27 µM
- TGI (OVCAR-3 ovarian): 15.8 µM
